Data published in patent US12071435B2, “TLR8 agonist” (CHIA TAI TIANQING PHARMACEUTICAL GROUP CO., LTD., priority 2018, dated 2024).

Key:
Assay type in all cases: cell-based
Human TLR8 = Human TLR8 (Homo sapiens (Human), UniProt Q9NR97); experiment: HEK-Blue hTLR8 SEAP reporter gene assay (agonistic activity); conditions: HEK-Blue hTLR8 cells, 24 h incubation, SEAP by QUANTI-Blue OD650
Source text: (§1) The HEK-Blue™ hTLR7 (catalog No.: hkb-ht1r7) and HEK-Blue™ hTLR8 (catalog No.: hkb-ht1r8) cell lines used in this experiment were purchased from InvivoGen. The two cell lines were constructed by a human embryonic kidney 293 cell line stably co-transfecting hTLR7 or hTLR8 and inducing expression of Secreted Alkaline Phosphatase (SEAP) reporter gene, wherein SEAP reporter gene was regulated by an IFN-β promoter. The promoter was fused with NF-κB and AP-1 binding sites. hTLR7 or hTLR8 agonist can activate NF-κB and AP-1 and induce the expression and secretion of SEAP. The agonistic activity of compound for hTLR7 and hTLR8 receptors was identified by measuring the expression level of SEAP using QUANTI-Blue™ reagent.
(§2) • 1. Compound was diluted in 3-fold gradients (10 concentration points in total) and added to the cell plate in duplicate. 1 μL of DMSO was added to each negative control well. • 2. The cells cultured in a T150 flask were taken out from a CO2 incubator, and the cell culture supernatant was discarded. The resulting cells were washed once with Dulbecco's phosphate buffered saline (DPBS). The flask was added with about 10 mL of the culture medium, and tapped to detach the cells. The resulting cell mass was gently pipetted evenly. The cells were counted and the cell suspension was adjusted to 500,000 cells/mL with the culture medium. Then 100 μL of diluted cells were added to each well (50,000 cells/well) of a 96-well plate containing the compound. • 3. The compound and cells were incubated in an incubator at 37° C., 5% CO2 for 24 h. • 4. Activity assay on the compound: 20 μL of the induced cell supernatant from each well was added to a cell culture plate containing 180 μL of QUANTI-Blue™ reagent, and after incubation at 37° C. for 1 h, the optical density absorbance at 650 nm (OD650) was assayed for each well using a multi-functional microplate reader. • 5. Activity assay on the cells: luciferase signal (RLU) was detected using a multi-functional microplate reader as per the process described in the instructions of ATPlite 1Step. • 6. Data analysis: compound activity: OD650 values were analyzed using GraphPad Prism software and the dose-response curves of the compounds were fitted to calculate EC50 values (half maximal effect concentration) for the compounds.

Human TLR7 = Human TLR7 (Homo sapiens (Human), UniProt Q9NYK1); experiment: HEK-Blue hTLR7 SEAP reporter gene assay (agonistic activity); conditions: HEK-Blue hTLR7 cells, 24 h incubation, SEAP by QUANTI-Blue OD650
Source text: as §1, §2

[1] = tested on: human peripheral blood mononuclear cells (hPBMCs); experiment: Cytokine induction (IL-12p40, IFN-γ, TNF-α) in peripheral blood mononuclear cells, flow cytometric bead array; conditions: PBMC, hPBMC, 24 h incubation, supernatant, CBA
Source text: (§3) TLR8 is a receptor for the innate immune system to sense exogenous pathogens, and can recognize exogenous viral single-stranded RNA and cause the release of a series of cytokines such as TNF-α, IL-12, IFN-γ to elicit an antiviral immune response; TLR7 is another receptor for the innate immune system to sense exogenous pathogens and, when activated, produces primarily such antiviral cytokines as IFN-α. In this experiment, a potential compound of TLR8 agonist was used to stimulate human peripheral blood mononuclear cells (hPBMCs), and the levels of TNF-α, IL-12p40, IFN-γ and IFN-α above were measured to reflect the activation of the compound on TLR8 receptor and its selectivity for TLR8/TLR7.
• 1. Fresh blood of healthy volunteers was collected and anticoagulated with an EDTA-K2 anticoagulation tube (catalog No.: BD-8516542); • 2. hPBMC cells in the middle cloud-like layer were separated after Ficoll density gradient centrifugation, and washed twice with RPMI1640 (source: Gibco, catalog No.: 224400-089) containing 10% serum, and the culture medium was resuspended to 10 mL. After the cells were counted with Vi-cell cell counter, the concentration of cell suspension was adjusted to 2×10^6/mL; • 3. The compound was dissolved in DMSO to 100 mM, and diluted to 50 mM and 2 mM with DMSO, which were served as initial concentrations. Then the solutions were each diluted sequentially in a 3-fold gradient (sample at a previous concentration (5 μL)+DMSO (10 μL)) to obtain 8 gradients. The resulting solutions were respectively subjected to 500-fold dilution with the culture medium to prepare the working solutions of the compound; • 4. […] IL-12p40, TNF-α and IFN-γ in the supernatant were detected by flow cytometric bead array (CBA); IFN-α in the cell supernatant was detected by enzyme-linked immuno sorbent assay (ELISA). • 6. Data analysis: compound activity: EC50 values (half maximal effect concentration) were analyzed using a GraphPad Prism software and the dose-response curves of the compound were fitted to calculate EC50 values for the compound.

[2] = tested on: human peripheral blood mononuclear cells (hPBMCs); experiment: IFN-α induction in peripheral blood mononuclear cells, ELISA; conditions: PBMC, hPBMC, 24 h incubation, supernatant, up to 50 μM
Source text: as §3
• 1. […] After the cells were counted with Vi-cell cell counter, the concentration of cell suspension was adjusted to 2×10^6/mL; • 3. […] IL-12p40, TNF-α and IFN-γ in the supernatant were detected by flow cytometric bead array (CBA); IFN-α in the cell supernatant was detected by enzyme-linked immuno sorbent assay (ELISA). • 6. Data analysis: compound activity: EC50 values (half maximal effect concentration) were analyzed using a GraphPad Prism software and the dose-response curves of the compound were fitted to calculate EC50 values for the compound.

Sequence of Human TLR8 (Q9NR97 27-1041): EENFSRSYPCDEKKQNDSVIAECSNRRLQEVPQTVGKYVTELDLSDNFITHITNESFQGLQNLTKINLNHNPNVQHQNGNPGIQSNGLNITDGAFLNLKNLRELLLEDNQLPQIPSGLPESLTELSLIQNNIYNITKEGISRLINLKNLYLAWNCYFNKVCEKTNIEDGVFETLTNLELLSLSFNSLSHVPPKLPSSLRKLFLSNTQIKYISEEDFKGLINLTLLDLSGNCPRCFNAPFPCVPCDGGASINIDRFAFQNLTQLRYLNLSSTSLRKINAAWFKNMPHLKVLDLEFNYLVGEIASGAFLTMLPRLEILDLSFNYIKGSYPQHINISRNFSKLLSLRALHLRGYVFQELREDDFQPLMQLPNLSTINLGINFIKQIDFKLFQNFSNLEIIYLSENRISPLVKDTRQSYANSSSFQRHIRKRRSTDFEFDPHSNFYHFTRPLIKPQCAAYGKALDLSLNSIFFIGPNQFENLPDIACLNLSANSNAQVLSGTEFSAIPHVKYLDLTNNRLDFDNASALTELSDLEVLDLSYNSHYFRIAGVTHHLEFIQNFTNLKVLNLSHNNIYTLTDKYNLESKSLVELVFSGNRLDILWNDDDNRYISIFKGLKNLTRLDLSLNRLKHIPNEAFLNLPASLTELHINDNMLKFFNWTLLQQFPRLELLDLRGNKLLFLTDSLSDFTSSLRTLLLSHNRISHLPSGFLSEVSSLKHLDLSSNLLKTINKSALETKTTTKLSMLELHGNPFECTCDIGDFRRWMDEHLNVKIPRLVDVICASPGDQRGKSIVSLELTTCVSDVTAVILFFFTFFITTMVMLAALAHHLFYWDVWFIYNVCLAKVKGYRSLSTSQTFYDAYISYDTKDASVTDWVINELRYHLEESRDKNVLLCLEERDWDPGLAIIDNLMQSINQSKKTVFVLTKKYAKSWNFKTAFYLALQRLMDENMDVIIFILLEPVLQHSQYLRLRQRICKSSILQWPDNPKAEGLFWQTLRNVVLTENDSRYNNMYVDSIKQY
Sequence of Human TLR7 (Q9NYK1 27-1049): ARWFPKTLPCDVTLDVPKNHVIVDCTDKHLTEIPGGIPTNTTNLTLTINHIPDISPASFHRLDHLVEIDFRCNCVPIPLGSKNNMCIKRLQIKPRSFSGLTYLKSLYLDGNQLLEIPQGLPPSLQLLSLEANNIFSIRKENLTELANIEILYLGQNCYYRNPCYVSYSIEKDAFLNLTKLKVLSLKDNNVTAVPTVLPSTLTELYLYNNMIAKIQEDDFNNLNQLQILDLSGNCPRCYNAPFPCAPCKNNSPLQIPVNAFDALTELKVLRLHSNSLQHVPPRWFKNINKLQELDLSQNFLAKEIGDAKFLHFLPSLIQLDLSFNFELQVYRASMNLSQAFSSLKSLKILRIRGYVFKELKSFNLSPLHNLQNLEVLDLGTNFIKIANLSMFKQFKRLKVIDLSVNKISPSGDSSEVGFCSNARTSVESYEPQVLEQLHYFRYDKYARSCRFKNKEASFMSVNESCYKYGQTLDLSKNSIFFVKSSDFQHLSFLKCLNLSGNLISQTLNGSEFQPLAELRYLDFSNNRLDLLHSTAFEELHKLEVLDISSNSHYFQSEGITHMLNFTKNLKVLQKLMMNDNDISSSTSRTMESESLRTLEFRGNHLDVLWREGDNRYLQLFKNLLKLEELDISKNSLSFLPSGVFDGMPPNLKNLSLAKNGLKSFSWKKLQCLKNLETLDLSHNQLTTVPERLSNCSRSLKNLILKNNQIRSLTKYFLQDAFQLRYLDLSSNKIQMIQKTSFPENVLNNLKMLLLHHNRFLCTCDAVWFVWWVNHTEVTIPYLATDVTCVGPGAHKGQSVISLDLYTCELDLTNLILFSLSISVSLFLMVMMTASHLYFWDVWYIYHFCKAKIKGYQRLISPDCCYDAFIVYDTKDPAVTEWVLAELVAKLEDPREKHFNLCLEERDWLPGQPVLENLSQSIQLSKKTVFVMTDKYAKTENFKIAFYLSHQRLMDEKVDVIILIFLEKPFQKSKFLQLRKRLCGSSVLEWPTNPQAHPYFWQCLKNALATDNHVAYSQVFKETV

SMILES: CCCCC(C)(CNC(=O)[C@@H]1CC(F)(F)CN1)Nc1nc(N)nc2cccnc12 (single isomer, unassigned) [Compound 5]
- EC50 (Human TLR8): 106 nM
- EC50 (Human TLR7): > 15000 nM

SMILES: CCCCC(C)(CNC(=O)[C@@H]1CCCN1)Nc1nc(N)nc2cccnc12 (single isomer, unassigned) [Compound 1]
- EC50 (Human TLR8): 2 nM
- EC50 (Human TLR7): > 15000 nM
- EC50 ([1]; read-out: IFN-γ EC50): 15 nM
- EC50 ([1]; read-out: IL-12p40 EC50): 6 nM
- EC50 ([1]; read-out: TNF-α EC50): 30 nM
- EC50 [2]: > 50000 nM

SMILES: CCCCC(C)(CNC(=O)[C@@H]1CCN1)Nc1nc(N)nc2cccnc12 (single isomer, unassigned) [Compound 7]
- EC50 (Human TLR8): 15 nM
- EC50 (Human TLR7): > 15000 nM

SMILES: CCCCC(C)(CNC(=O)[C@@H]1CCCN1)Nc1nc(N)nc2cnccc12 (stereo partly drawn) [Compound 2]
- EC50 (Human TLR8): 6 nM
- EC50 (Human TLR7): > 15000 nM

SMILES: CCCCC(C)(CNC(=O)[C@@H]1COCCN1)Nc1nc(N)nc2cccnc12 (single isomer, unassigned) [Compound 4]
- EC50 (Human TLR8): 14 nM
- EC50 (Human TLR7): > 15000 nM

SMILES: CCCCC(C)(CNC(=O)[C@@H]1CCCCN1)Nc1nc(N)nc2cccnc12 (single isomer, unassigned) [Compound 6]
- EC50 (Human TLR8): 18 nM
- EC50 (Human TLR7): > 15000 nM

SMILES: CCCCC(C)(CNC(=O)[C@@H]1CCCN1)Nc1nc(N)nc2ccccc12 (stereo partly drawn) [Compound 3]
- EC50 (Human TLR8): 32 nM
- EC50 (Human TLR7): > 15000 nM
